Measurements published in the supplement of paper PMC10307832.

What was measured:
Experiment in all cases: relative viability (nuclei count vs DMSO), 5 days (fraction); higher = more cells survive
[1] = compound: Cn1c(=O)n(-c2ccc(C(C)(C)C#N)cc2)c2c3cc(-c4cnc5ccccc5c4)ccc3ncc21 [Dactolisib] + Nc1nc2[nH]cc(CCc3ccc(C(=O)N[C@@H](CCC(=O)O)C(=O)O)cc3)c2c(=O)[nH]1 [Pemetrexed] (partner 0.2 µM)
How it was run: (§1)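 For relative viability, nuclei counts in treated wells were divided by those in vehicle wells. Lung cancer cell lines had been pin-tool dosed in 1536-well plates the day after seeding and cultured for 5 days, then fixed and stained in one step (final 0.05% Triton X-100, 1% formaldehyde, 1 ug/ml Hoechst) and imaged at 4×. Doses were one drug alone or a fixed anchor-drug dose plus five library-drug doses (not always all listed) in √10 steps, and values are duplicate-plate medians.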

[2] = compound: Cn1c(=O)n(-c2ccc(C(C)(C)C#N)cc2)c2c3cc(-c4cnc5ccccc5c4)ccc3ncc21 [Dactolisib] + C[C@@H](Oc1cc(-c2cnn(C3CCNCC3)c2)cnc1N)c1c(Cl)ccc(F)c1Cl [Crizotinib] (partner 1 µM)
How it was run: as §1

[3] = compound: C1CCC(CC1)N(CCNCCC2=C3C(=C(C=C2)O)NC(=O)CO3)C(=O)CCNCCC4=CC(=C(C=C4)Cl)Cl [AZ505] + Cc1cc(Nc2cc(N3CCN(C)CC3)nc(Sc3ccc(NC(=O)C4CC4)cc3)n2)n[nH]1 [Tozasertib] (partner 0.1 µM)
How it was run: as §1

[4] = compound: Cn1c(=O)n(-c2ccc(C(C)(C)C#N)cc2)c2c3cc(-c4cnc5ccccc5c4)ccc3ncc21 [Dactolisib] + CC1(C)CCC(c2ccc(Cl)cc2)=C(CN2CCN(c3ccc(C(=O)NS(=O)(=O)c4ccc(N[C@H](CCN5CCOCC5)CSc5ccccc5)c(S(=O)(=O)C(F)(F)F)c4)cc3)CC2)C1 [Navitoclax] (partner 0.5 µM)
How it was run: as §1

Cell Line | relative viability ([1]; first compound 0.002 µM) | relative viability ([1]; first compound 0.006325 µM) | relative viability ([1]; first compound 0.02 µM) | relative viability ([1]; first compound 0.06325 µM) | relative viability ([1]; first compound 0.2 µM) | relative viability ([2]; first compound 0.002 µM) | relative viability ([2]; first compound 0.006325 µM) | relative viability ([2]; first compound 0.02 µM) | relative viability ([2]; first compound 0.06325 µM) | relative viability ([2]; first compound 0.2 µM) | relative viability ([3]; first compound 0.08 µM) | relative viability ([3]; first compound 0.253 µM) | relative viability ([3]; first compound 0.8 µM) | relative viability ([3]; first compound 2.53 µM) | relative viability ([3]; first compound 8 µM) | relative viability ([4]; first compound 0.002 µM) | relative viability ([4]; first compound 0.006325 µM) | relative viability ([4]; first compound 0.02 µM) | relative viability ([4]; first compound 0.06325 µM) | relative viability ([4]; first compound 0.2 µM)
LK-2 | 0.278 | 0.263 | 0.249 | 0.117 | 0.171 | 0.209 | 0.244 | 0.266 | 0.213 | 0.216 | 0.17 | 0.167 | 0.197 | 0.167 | 0.184 | 0.773 | 0.852 | 0.639 | 0.381 | 0.282
NCI-H1437 | 0.309 | 0.347 | 0.312 | 0.27 | 0.227 | 1.03 | 0.904 | 0.902 | 0.699 | 0.865 | 0.396 | 0.424 | 0.382 | 0.391 | 0.403 | 1.2 | 1.07 | 1.07 | 0.967 | 0.837
COR-L23 | 0.194 | 0.198 | 0.195 | 0.197 | 0.183 | 0.787 | 0.604 | 0.619 | 0.283 | 0.165 | 0.181 | 0.177 | 0.22 | 0.179 | 0.146 | 1.14 | 0.934 | 0.644 | 0.238 | 0.188
ABC-1 | – | – | – | – | – | 0.632 | 0.97 | 0.908 | 0.765 | 0.396 | 0.116 | 0.185 | 0.168 | 0.168 | 0.167 | – | – | – | – | –
NCI-H522 | 1.08 | 0.774 | 1.11 | 0.927 | 0.851 | – | – | – | – | – | 0.459 | 0.552 | 0.488 | 0.603 | 0.674 | – | – | – | – | –
NCI-H838 | 0.25 | 0.227 | 0.264 | 0.203 | 0.165 | 0.798 | 0.586 | 0.534 | 0.275 | 0.216 | 0.253 | 0.286 | 0.257 | 0.268 | 0.265 | 1.13 | 0.776 | 0.474 | 0.205 | 0.251
SW 900 | 0.498 | 0.48 | 0.474 | 0.259 | 0.271 | – | – | – | – | – | 0.439 | 0.665 | 0.713 | 0.614 | 0.544 | – | – | – | – | –
A549 | – | – | – | – | – | 0.855 | 0.653 | 0.569 | 0.162 | 0.0827 | – | – | – | – | – | 1.29 | 1.05 | 0.706 | 0.248 | 0.104
A-427 | 1.09 | 1.03 | 0.968 | 0.8 | 0.644 | 0.93 | 0.856 | 0.844 | 0.615 | 0.48 | 0.211 | 0.177 | 0.194 | 0.187 | 0.216 | 0.953 | 0.951 | 0.915 | 0.393 | 0.349
NCI-H1792 | 0.625 | 0.473 | 0.313 | 0.109 | 0.0622 | 1.15 | 0.971 | 0.921 | 0.601 | 0.294 | – | – | – | – | – | 0.823 | 0.692 | 0.582 | 0.381 | 0.181
NCI-H1703 | – | – | – | – | – | 0.581 | 0.49 | 0.373 | 0.35 | 0.18 | – | – | – | – | – | 0.875 | 1.03 | 0.684 | 0.365 | 0.229
LCLC-103H | 0.437 | 0.468 | 0.462 | 0.393 | 0.379 | 1.03 | 0.985 | 1.08 | 0.675 | 0.461 | 0.508 | 0.504 | 0.434 | 0.461 | 0.459 | – | – | – | – | –
Calu-6 | – | – | – | – | – | 0.891 | 0.766 | 0.702 | 0.462 | 0.325 | – | – | – | – | – | 0.972 | 0.794 | 0.703 | 0.411 | 0.259
NCI-H358 | 0.164 | 0.164 | 0.159 | 0.134 | 0.14 | 0.702 | 0.705 | 0.738 | 0.391 | 0.189 | 0.094 | 0.0964 | 0.0966 | 0.108 | 0.104 | – | – | – | – | –
NCI-H1648 | 0.779 | 0.739 | 0.896 | 0.837 | 0.52 | – | – | – | – | – | 0.469 | 0.581 | 0.408 | 0.562 | 0.703 | – | – | – | – | –
EBC-1 | – | – | – | – | – | 0.226 | 0.181 | 0.208 | 0.198 | 0.2 | – | – | – | – | – | 0.408 | 0.417 | 0.212 | 0.173 | 0.145
NCI-H1299 | – | – | – | – | – | 0.941 | 0.964 | 0.997 | 0.76 | 0.649 | – | – | – | – | – | 1.06 | 1.1 | 1.08 | 0.986 | 1.03
NCI-H2342 | 0.75 | 0.833 | 0.721 | 0.779 | 0.599 | – | – | – | – | – | 0.441 | 0.625 | 0.559 | 0.509 | 0.618 | – | – | – | – | –
IA-LM | – | – | – | – | – | 0.903 | 0.561 | 0.539 | 0.162 | 0.0865 | – | – | – | – | – | 0.819 | 0.579 | 0.564 | 0.116 | 0.0832
NCI-H727 | – | – | – | – | – | 0.915 | 0.671 | 0.666 | 0.354 | 0.374 | 0.645 | 0.53 | 0.525 | – | 0.581 | 0.467 | 0.506 | 0.341 | 0.248 | 0.162
NCI-H650 | 1 | 0.815 | 0.897 | 0.723 | 0.47 | 0.627 | 0.747 | 0.752 | 0.519 | 0.393 | 0.733 | 0.705 | 0.729 | 0.726 | 0.736 | – | – | – | – | –
NCI-H661 | 0.823 | 0.932 | 0.854 | 0.498 | 0.515 | 0.987 | 0.979 | 1.14 | 0.779 | 0.613 | 0.356 | 0.377 | 0.351 | 0.32 | 0.367 | – | – | – | – | –
NCI-H1793 | 0.751 | 0.409 | 0.266 | 0.214 | 0.168 | – | – | – | – | – | 0.392 | 0.346 | 0.386 | – | 0.384 | 0.372 | 0.416 | 0.272 | 0.184 | 0.159
